Assay results reported in patent US7855290B2, “Pyridine derivatives and pyrimidine derivatives (3)” (Eisai R&D Management Co., Ltd., priority 2005, dated 2010).

What was measured:
[1] = target: T1, His6-HGFR (HGFR cytoplasmic domain) (Homo sapiens, UniProt P08581); test: Inhibitory activity against HGFR tyrosine kinase activity (HTRF); type: biochemical; conditions: biotin-poly(GT), ATP, 30° C. 10 min
T1 construct: made in house; host or cells: Sf9 insect cells (Spodoptera frugiperda), baculovirus, pFastBac-HT vector
T1 sequence (P08581 956-1390 limits assumed): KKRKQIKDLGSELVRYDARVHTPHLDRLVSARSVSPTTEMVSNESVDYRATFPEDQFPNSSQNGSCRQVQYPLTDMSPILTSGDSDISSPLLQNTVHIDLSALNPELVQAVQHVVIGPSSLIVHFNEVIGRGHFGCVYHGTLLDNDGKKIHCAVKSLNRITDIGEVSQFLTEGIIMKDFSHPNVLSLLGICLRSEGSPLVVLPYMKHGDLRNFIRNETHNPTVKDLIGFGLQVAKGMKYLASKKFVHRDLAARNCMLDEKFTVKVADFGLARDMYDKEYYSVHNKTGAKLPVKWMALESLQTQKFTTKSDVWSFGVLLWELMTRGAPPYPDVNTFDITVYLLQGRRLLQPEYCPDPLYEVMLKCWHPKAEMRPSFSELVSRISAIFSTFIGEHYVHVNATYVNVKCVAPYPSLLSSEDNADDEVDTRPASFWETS
Source text: The cytoplasmic domain of HGFR (Genbank Accession No. J02958) is a 1.3 kb DNA fragment beginning with Lys974 and including a stop codon, and described by Park et al. (Proc. Natl. Acad. Sci. U.S.A. 84(18), 6379-6383, 1987). The DNA fragment was isolated from the human placental cDNA library (purchased from Clontech) by PCR (TaKaRa Ex Taq™ Kit, purchased from TaKaRa) using two kinds of primers (SEQ ID NO: 1,5′-[…]-3′ and SEQ ID NO: 2,5′-[…]-3′, purchased from Invitrogen). The DNA fragment was cloned into a baculovirus transplace vector (pFastBac™-HT (purchased from GIBCO BRL)) to produce a recombinant construct. […] EGFR was purchased from Sigma (Production No. E-2645).
To the suspension of Sf9 cells (3×10^8 cells) in SF-900II medium (purchased from Invitrogen) containing 2% FBS was added a solution of HGFR transfected baculovirus above (4 ml), followed by a shaking culture at 27° C. for 48 hrs. The cells infected with the HGFR transfected baculovirus were centrifuged at 1,000 rpm, 4° C. for 5 min to remove the supernatant. The precipitated infected cells were suspended in 80 ml of ice-cold PBS, and centrifuged at 1,000 rpm, 4° C. for 5 min to remove the supernatant. The precipitated infected cells were suspended in 40 ml of ice-cold Lysis Buffer (50 mM Tris-HCl (pH 8.5), 5 mM 2-mercaptoethanol, 100 mM KCl, 1 mM PMSF and 1% (v/v) NP-40). The suspension was centrifuged at 12,000 rpm, 4° C. for 30 min to provide a supernatant.
The supernatant was loaded onto an Ni-NTA agarose column (3 ml, purchased from Qiagen) equilibrated with 30 ml of Buffer A (20 mM Tris-HCl (pH 8.5), 5 mM 2-mercaptoethanol, 500 mM KCl, 20 mM imidazole and 10% (v/v) glycerol). The column was washed with 30 ml of Buffer A, 6 ml of Buffer B (20 mM Tris-HCl (pH 8.5), 5 mM 2-mercaptoethanol, 1 M KCl, and 10% (v/v) glycerol) and 6 ml of Buffer A in this order. Then, the column was eluted with 6 ml of Buffer C (20 mM Tris-HCl (pH 8.5), 5 mM 2-mercaptoethanol, 100 mM KCl, 100 mM imidazole, and 10% (v/v) glycerol) to provide a fraction. The fraction was entrapped in a dialysis membrane (purchased from Spectrum Laboratories), dialyzed at 4° C. overnight with 1 L of dialysis buffer (20 mM Tris-HCl (pH 7.5), 10% (v/v) glycerol, 1 mM dithiothreitol, 0.1 mM Na3VO4 and 0.1 mM EGTA), and stored at −80° C. until used. […] The VEGFR2 cytoplasmic domain, the FGFR1 cytoplasmic domain, and the PDGFRβ cytoplasmic domain were fused with six histidine at the N terminus by the similar method to produce respective recombinant proteins (His6-VEGFR2, His6-FGFR1, and His6-PDGFRβ).
To each well of a 96-well round plate (purchased from NUNC, Production No. 163320) were added 10 μl of a solution for kinase reaction (200 mM Hepes (pH 7.4), 80 mM MgCl2, 16 mM MnCl2 and 2 mM Na3VO4), 250 ng of biotinylated poly(Glu4: Tyr1) (biotin-poly(GT), purchased from Japan Schering) (6 μl, 15-fold diluted with distilled water), 30 ng of His6-HGFR (10 μl, 60-fold diluted with 0.4% BSA) and a test substance dissolved in dimethylsulfoxide (4 μl, 100-fold diluted with 0.1% BSA) to mess up to 30 μl. To the well was added 10 μl of 4 μM ATP (purchased from Sigma) diluted with distilled water to incubate at 30° C. for 10 min, followed by adding 10 μl of 500 mM EDTA (pH 8.0) (purchased from Wako Pure Chemicals) to provide a kinase reaction solution.
The tyrosine-phosphorylated biotin-poly(GT) was detected using the Homogenous Time-Resolved Fluorescence (HTRF) method (Analytical Biochemistry, 269, 94-104, 1999).

[2] = test system: Human gastric cancer cells (MKN-45); test: Inhibitory activity against the proliferation of human gastric cancer cells (MKN-45); type: cell-based; conditions: 72 h, MKN-45, 1% FBS RPMI1640, 3 days, Cell Counting Kit-8
Protocol: Human gastric cancer cells (MKN-45) were suspended in a 1% FBS-containing RPMI1640 medium (purchased from Sigma). The cell suspension (1×10^4 cells/ml) was added in a 96-well plate for cell culture (purchased from NUNC, Production No. 167008) at 0.1 ml/well, and then cultured in a 5% CO2 incubator (37° C.) overnight. After the culture, each well was supplied with 0.1 ml of a test substance diluted with a 1% FBS-containing RPMI1640 medium, followed by culturing in a 5% CO2 incubator (37° C.) for 3 days. After the culture, each well was supplied with 10 μl of Cell Counting Kit-8 (purchased from DOJINDO, Production No. 343-07623), followed by incubation in a 5% CO2 incubator (37° C.) for about 1.5 hrs. After the incubation, using the Plate Reader MTP-500 (Corona Electric), the absorbance of each well was determined at a measurement wavelength of 450 nm and a reference wavelength of 660 nm.

HGFR = target: T2, HGFR (Homo sapiens, UniProt P08581); test: Inhibitory activity against the HGFR autophosphorylation using ELISA (MKN-45 cells); type: cell-based; conditions: 1 hr with test substance
T2 construct: endogenous in cells; host or cells: MKN-45 human gastric cancer cells
T2 sequence (P08581 25-1390): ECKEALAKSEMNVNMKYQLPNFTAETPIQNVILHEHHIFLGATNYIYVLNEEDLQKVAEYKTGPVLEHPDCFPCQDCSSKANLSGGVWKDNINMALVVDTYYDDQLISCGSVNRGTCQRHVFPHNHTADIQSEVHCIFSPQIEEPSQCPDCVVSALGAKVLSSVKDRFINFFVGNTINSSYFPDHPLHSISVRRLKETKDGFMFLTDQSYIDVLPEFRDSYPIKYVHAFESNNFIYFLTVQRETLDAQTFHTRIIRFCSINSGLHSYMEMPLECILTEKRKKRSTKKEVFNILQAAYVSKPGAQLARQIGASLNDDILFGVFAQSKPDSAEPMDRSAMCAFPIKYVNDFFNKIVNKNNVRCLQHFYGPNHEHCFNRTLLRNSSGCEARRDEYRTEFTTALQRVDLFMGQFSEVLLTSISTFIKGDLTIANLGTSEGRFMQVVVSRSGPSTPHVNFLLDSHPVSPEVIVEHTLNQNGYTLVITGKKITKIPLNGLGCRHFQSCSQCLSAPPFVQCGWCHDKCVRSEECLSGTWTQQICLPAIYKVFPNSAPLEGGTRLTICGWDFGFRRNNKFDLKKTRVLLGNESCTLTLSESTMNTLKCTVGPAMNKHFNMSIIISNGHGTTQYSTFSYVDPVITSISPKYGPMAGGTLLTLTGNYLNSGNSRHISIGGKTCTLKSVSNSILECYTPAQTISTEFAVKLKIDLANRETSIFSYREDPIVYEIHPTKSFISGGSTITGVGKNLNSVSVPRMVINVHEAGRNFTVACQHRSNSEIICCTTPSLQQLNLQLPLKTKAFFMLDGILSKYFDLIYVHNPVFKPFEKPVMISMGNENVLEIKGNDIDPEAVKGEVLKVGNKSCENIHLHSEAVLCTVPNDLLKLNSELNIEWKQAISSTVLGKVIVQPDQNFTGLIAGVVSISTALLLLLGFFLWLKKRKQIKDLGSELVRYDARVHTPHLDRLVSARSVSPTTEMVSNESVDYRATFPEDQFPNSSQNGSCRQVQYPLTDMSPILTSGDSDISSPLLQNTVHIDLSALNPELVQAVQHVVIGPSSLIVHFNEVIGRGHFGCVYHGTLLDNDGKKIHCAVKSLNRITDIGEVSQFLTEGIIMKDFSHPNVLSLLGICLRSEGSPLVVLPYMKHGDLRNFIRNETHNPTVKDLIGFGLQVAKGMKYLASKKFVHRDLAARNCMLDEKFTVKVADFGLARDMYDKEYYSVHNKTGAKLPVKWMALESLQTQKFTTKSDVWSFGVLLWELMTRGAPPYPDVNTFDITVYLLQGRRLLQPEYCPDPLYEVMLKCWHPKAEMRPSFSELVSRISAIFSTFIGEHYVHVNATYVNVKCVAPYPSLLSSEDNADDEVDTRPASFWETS
Protocol: Human gastric cancer cells (MKN-45) were suspended in a 1% FBS-containing RPMI1640 medium (purchased from Sigma). The cell suspension (1×10^5 cells/ml) was put in a 96-well plate for cell culture (purchased from NUNC, Production No. 167008) at 0.1 ml/well, and then cultured in a 5% CO2 incubator (37° C.) overnight. After the culture, from each well was removed the supernatant, followed by adding 0.05 ml of a 1% FBS-containing RPMI1640 medium. Then, the well was supplied with 0.05 ml of the test substance dissolved in dimethyl sulfoxide (diluted with a 1% FBS-containing RPMI1640 medium), followed by culturing in a 5% CO2 incubator (37° C.) for 1 hr. From each well was removed the supernatant, and each well was washed with 150 μl of PBS, followed by adding 100 μl of a lysis buffer (50 mM Hepes (pH 7.4), 150 mM NaCl, 10% (v/v) glycerol, 1% Triton X-100, 1.5 mM MgCl2, 1 mM EDTA (pH 8.0), 100 mM NaF, 1 mM PMSF, 10 μg/ml Aprotinin, 50 μg/ml Leupeptin, 1 μg/ml Pepstatin A and 1 mM Na3VO4). The plate was shaken at 4° C. for 1 hr to prepare the cell extract.
To a 96-well plate for ELISA (purchased from COSTAR, Production No. 3369) was added 50 μl of 60 mM bicarbonate buffer (pH 9.6) containing 50 μg/ml of an anti-phosphotyrosine antibody (PY20, purchased from Transduction Laboratory, Production No. P-11120). The plate was incubated at 4° C. overnight.
Each well of the plate prepared in 2. was washed three times with 200 μl of PBS, and supplied with 150 μl of 3% BSA/PBS, followed by incubating at room temperature for 2 hrs. Each well was washed three times with 200 μl of PBS, and supplied with 50 μl of the above cell extract, followed by incubating at 4° C. overnight. After the incubation, each well was washed three times with 250 μl of a washing solution (0.1% BSA, 20 mM Tris-HCl (pH 7.6), 137 mM NaCl, and 0.05% Tween-20), and supplied with 70 μl of anti-HGFR antibody (h-Met(C-12), purchased from Santa Cruz, Production No. sc-10) 2,000-fold diluted with a reaction solution (1% BSA, 20 mM Tris-HCl (pH 7.6), 137 mM NaCl and 0.05% Tween-20), followed by incubating at room temperature for 1 hr. The well was washed three times with 250 μl of the washing solution, and supplied with 70 μl of peroxidase-labelled anti-rabbit IgG antibody (purchased from Cell Signaling, Production No. 7074) 2,000-fold diluted with the reaction solution, followed by incubating at room temperature for 1 hr. Each well was washed three times with 250 μl of the washing solution, and supplied with 70 μl of TMB Membrane Peroxidase Substrate (purchased from Funakoshi, Production No. 50-5077-03), followed by incubating at room temperature for 10 min. Each well was supplied with 70 μl of 1 M phosphoric acid, and using the Plate Reader MTP-500 (Corona Electric), the absorbance of the well was instantly determined at a measurement wavelength of 450 nm. While defining the absorbance of a well supplied with the cell extract having no test substance as 100% HGFR autophosphorylation activity, and the absorbance of a well supplied with 50 μl of the lysis buffer as 0% HGFR autophosphorylation activity, the HGFR autophosphorylation activity (%) was calculated for each well.

Compound | IC50 [1] [nM] | IC50 [2] [nM] | IC50 (HGFR) [nM]
CN(C)CC1CCN(C(=O)Nc2cc(Oc3ccc(NC(=O)C4(C(=O)Nc5ccc(F)cc5)CCC4)cc3F)ccn2)CC1 [Example 6, N-[4-({2-[({4-[(Dimethylamino)methyl]piperidin-1-yl}carbonyl)amino]pyridin-4-yl}oxy)-3-fluorophenyl]-N′-(4-fluorophenyl)cyclobutane-1,1-dicarboxamide] | 640 | – | –
CN1CCC(N(C)C(=O)Nc2cc(Oc3cc(F)c(NC(=O)C4(C(=O)Nc5ccc(F)cc5)CC4)cc3F)ccn2)CC1 [Example 94] | – | 4.9 | –
O=C(Nc1cc(Oc2cc(F)c(NC(=O)C3(C(=O)Nc4ccc(F)cc4)CC3)cc2F)ccn1)N1CC(O)C1 [Example 91, N-[2,5-Difluoro-4-[(2-{[(3-hydroxyazetidin-1-yl)carbonyl]amino}pyridin-4-yl)oxy]phenyl}1-N′-(4-fluorophenyl)cyclopropane-1,1-dicarboxamide] | – | 5 | –
CN1CCC(N(C)C(=O)Nc2cc(Oc3ccc(NC(=O)C4(C(=O)Nc5cccnc5)CC4)c(F)c3)ccn2)CC1 [Example 51, N-(2-Fluoro-4-{[2-({[methyl(1-methylpiperidin-4-yl)amino]carbonyl}amino)pyridin-4-yl]oxy}phenyl)-N′-pyridin-3-ylcyclopropane-1,1-dicarboxamide] | 250 | – | 380
CN1CCC(N(C)C(=O)Nc2cc(Oc3ccc(NC(=O)C4(C(=O)NC5CCCC5)CC4)c(F)c3)ccn2)CC1 [Example 52, N-Cyclopentyl-N′-(2-fluoro-4-{[2-({[methyl(1-methylpiperidin-4-yl)amino]carbonyl}amino)pyridin-4-yl]oxy}phenyl)cyclopropane-1,1-dicarboxamide] | 160 | – | 170
CN1CCC(N(C)C(=O)Nc2cc(Oc3ccc(NC(=O)C4(C(=O)NCC(C)(C)C)CC4)c(F)c3)ccn2)CC1 [Example 53, N-(2,2-Dimethylpropyl)-N′-(2-fluoro-4-{[2-({[methyl(1-methylpiperidin-4-yl)amino]carbonyl}amino)pyridin-4-yl]oxy}phenyl)cyclopropane-1,1-dicarboxamide] | 270 | – | 370
CN1CCC(N(C)C(=O)Nc2cc(Oc3ccc(NC(=O)C4(C(=O)NCc5ccccc5)CC4)c(F)c3)ccn2)CC1 [Example 49, N-Benzyl-N′-(2-fluoro-4-{[2-({[methyl(1-methylpiperidin-4-yl)amino]carbonyl}amino)pyridin-4-yl]oxy}phenyl)cyclopropane-1,1-dicarboxamide] | 180 | – | 260
